Where “and” joins values, the source holds several entries; their conditions need not be identical. Equal entries are not always repeated.
What was measured:
[1] = target: Bromodomain testis-specific protein (Homo sapiens) (UniProt Q58F21); conditions: Compound concentration 10.0 uM, Protein concentration 2.0 uM
[2] = target: Transcription initiation factor TFIID subunit 1 (Homo sapiens) (UniProt P21675); conditions: Compound concentration 10.0 uM, Protein concentration 2.0 uM
[3] = target: ATPase family AAA domain-containing protein 2B (Homo sapiens) (UniProt Q9ULI0); conditions: Compound concentration 10.0 uM, Protein concentration 2.0 uM
[4] = target: PH-interacting protein (Homo sapiens) (UniProt Q8WWQ0); conditions: Compound concentration 50.0 uM, Protein concentration 0.025 uM
[5] = target: Nuclear body protein SP140 (Homo sapiens) (UniProt Q13342); conditions: Compound concentration 10.0 uM, Protein concentration 2.0 uM
[6] = target: Histone acetyltransferase KAT2B (Homo sapiens) (UniProt Q92831); conditions: Compound concentration 10.0 uM, Protein concentration 2.0 uM
Histone acetyltransferase KAT2B (Homo sapiens), sequence (Q92831 whole entry, looked up): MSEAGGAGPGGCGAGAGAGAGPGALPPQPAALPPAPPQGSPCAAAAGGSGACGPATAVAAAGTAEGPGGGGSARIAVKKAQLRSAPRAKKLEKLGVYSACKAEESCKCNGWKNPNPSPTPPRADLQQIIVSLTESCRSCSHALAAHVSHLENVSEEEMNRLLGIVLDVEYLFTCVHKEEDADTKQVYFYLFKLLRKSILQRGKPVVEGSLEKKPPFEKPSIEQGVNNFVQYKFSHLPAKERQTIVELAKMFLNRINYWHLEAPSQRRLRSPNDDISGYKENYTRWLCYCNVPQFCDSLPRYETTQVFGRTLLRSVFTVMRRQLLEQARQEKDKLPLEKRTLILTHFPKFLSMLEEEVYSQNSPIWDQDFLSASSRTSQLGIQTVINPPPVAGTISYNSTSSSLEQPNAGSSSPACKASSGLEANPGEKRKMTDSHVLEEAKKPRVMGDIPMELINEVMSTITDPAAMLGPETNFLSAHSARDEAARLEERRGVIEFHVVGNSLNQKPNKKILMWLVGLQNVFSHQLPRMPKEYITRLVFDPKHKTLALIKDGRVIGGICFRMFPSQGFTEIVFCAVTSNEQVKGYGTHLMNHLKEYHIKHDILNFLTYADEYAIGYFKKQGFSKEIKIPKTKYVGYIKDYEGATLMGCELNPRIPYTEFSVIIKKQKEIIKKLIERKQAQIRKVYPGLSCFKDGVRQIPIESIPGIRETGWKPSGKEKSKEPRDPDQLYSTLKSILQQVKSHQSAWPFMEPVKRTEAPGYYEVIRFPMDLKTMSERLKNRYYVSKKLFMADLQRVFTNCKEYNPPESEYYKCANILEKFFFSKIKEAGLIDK

[7] = target: Transcription intermediary factor 1-beta (Homo sapiens) (UniProt Q13263); conditions: Compound concentration 10.0 uM, Protein concentration 2.0 uM
[8] = target: Nuclear body protein SP140-like protein (Homo sapiens) (UniProt Q9H930); conditions: Compound concentration 10.0 uM, Protein concentration 2.0 uM
[9] = target: Nucleosome-remodeling factor subunit BPTF (Homo sapiens) (UniProt Q12830); conditions: Compound concentration 10.0 uM, Protein concentration 2.0 uM
[10] = target: SWI/SNF-related matrix-associated actin-dependent regulator of chromatin subfamily A member 2 (Homo sapiens) (UniProt P51531); conditions: Compound concentration 10.0 uM, Protein concentration 2.0 uM
[11] = target: Chromatin remodeling regulator CECR2 (Homo sapiens) (UniProt Q9BXF3); conditions: Compound concentration 10.0 uM, Protein concentration 2.0 uM
[12] = target: Bromodomain testis-specific protein (Homo sapiens) (UniProt Q58F21); conditions: Compound concentration 10.0 uM, Protein concentration 2.0 uM; remark: listed apart in the source
[13] = target: Bromodomain and WD repeat-containing protein 3 (Homo sapiens) (UniProt Q6RI45); conditions: Compound concentration 10.0 uM, Protein concentration 2.0 uM
[14] = target: Protein polybromo-1 (Homo sapiens) (UniProt Q86U86); conditions: Compound concentration 10.0 uM, Protein concentration 2.0 uM
[15] = target: Transcription initiation factor TFIID subunit 1-like (Homo sapiens) (UniProt Q8IZX4); conditions: Compound concentration 10.0 uM, Protein concentration 2.0 uM
[16] = target: Protein polybromo-1 (Homo sapiens) (UniProt Q86U86); assay: Thermal Shift Assay. Domain start/stop: H23-D159; conditions: Compound concentration 10.0 uM, Protein concentration 2.0 uM
[17] = target: Transcription initiation factor TFIID subunit 1 (Homo sapiens) (UniProt P21675); conditions: Compound concentration 10.0 uM, Protein concentration 2.0 uM; remark: listed apart in the source
[18] = target: T1, Bromodomain-containing protein 4 (Homo sapiens, UniProt O60885); conditions: Compound concentration 10.0 uM, Protein concentration 2.0 uM
[19] = target: PH-interacting protein (Homo sapiens) (UniProt Q8WWQ0); conditions: Compound concentration 10.0 uM, Protein concentration 2.0 uM
[20] = target: Bromodomain-containing protein 2 (Homo sapiens) (UniProt P25440); conditions: Compound concentration 10.0 uM, Protein concentration 2.0 uM
Bromodomain-containing protein 2 (Homo sapiens), sequence (P25440 whole entry, looked up): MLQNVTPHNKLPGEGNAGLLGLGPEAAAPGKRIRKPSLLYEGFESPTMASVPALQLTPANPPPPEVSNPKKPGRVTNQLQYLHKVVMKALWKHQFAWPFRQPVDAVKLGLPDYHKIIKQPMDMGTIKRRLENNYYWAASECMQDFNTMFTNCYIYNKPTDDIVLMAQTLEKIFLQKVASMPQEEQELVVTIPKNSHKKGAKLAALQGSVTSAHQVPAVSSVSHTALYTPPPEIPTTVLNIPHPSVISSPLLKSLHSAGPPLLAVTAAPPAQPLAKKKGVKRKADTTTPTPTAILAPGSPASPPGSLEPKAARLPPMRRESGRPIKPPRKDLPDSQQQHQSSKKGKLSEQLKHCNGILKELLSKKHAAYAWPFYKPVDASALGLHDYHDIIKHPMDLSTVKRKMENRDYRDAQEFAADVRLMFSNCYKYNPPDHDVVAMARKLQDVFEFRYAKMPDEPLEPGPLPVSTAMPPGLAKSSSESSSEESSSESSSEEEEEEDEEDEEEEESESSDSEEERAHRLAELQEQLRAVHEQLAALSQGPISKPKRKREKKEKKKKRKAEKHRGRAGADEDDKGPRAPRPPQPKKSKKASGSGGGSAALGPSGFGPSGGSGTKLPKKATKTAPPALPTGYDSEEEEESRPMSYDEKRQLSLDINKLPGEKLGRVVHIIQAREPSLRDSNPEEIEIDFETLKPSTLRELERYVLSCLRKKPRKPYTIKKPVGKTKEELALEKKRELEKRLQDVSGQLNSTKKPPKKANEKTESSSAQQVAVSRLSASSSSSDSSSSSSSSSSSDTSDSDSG

[21] = target: Protein polybromo-1 (Homo sapiens) (UniProt Q86U86); conditions: Compound concentration 10.0 uM, Protein concentration 2.0 uM; remark: listed apart in the source
[22] = target: T1, Bromodomain-containing protein 4; assay: Alphascreen assay. Binding to BRD4A (domain start/stop: N44-E168) by alphascreen assay
[23] = target: Tripartite motif-containing protein 66 (Homo sapiens) (UniProt O15016); assay: Thermal Shift Assay. Domain start/stop: M1091-S1218; conditions: Compound concentration 10.0 uM, Protein concentration 2.0 uM
[24] = target: Bromodomain adjacent to zinc finger domain protein 2A (Homo sapiens) (UniProt Q9UIF9); conditions: Compound concentration 10.0 uM, Protein concentration 2.0 uM
[25] = target: Bromodomain-containing protein 1 (Homo sapiens) (UniProt O95696); conditions: Compound concentration 10.0 uM, Protein concentration 2.0 uM
CREB-binding protein [26] = target: T2, CREB-binding protein (Homo sapiens, UniProt Q92793); assay: Alphascreen assay. Binding to CREBBPA (domain start/stop: R1081-G1197) by alphascreen assay
[27] = target: Transcription intermediary factor 1-alpha (Homo sapiens) (UniProt O15164); conditions: Compound concentration 10.0 uM, Protein concentration 2.0 uM
[28] = target: Bromodomain-containing protein 3 (Homo sapiens) (UniProt Q15059); assay: Thermal Shift Assay. Domain start/stop: P24-E144; conditions: Compound concentration 10.0 uM, Protein concentration 2.0 uM
Bromodomain-containing protein 3 (Homo sapiens), sequence (Q15059 2-726 limits assumed): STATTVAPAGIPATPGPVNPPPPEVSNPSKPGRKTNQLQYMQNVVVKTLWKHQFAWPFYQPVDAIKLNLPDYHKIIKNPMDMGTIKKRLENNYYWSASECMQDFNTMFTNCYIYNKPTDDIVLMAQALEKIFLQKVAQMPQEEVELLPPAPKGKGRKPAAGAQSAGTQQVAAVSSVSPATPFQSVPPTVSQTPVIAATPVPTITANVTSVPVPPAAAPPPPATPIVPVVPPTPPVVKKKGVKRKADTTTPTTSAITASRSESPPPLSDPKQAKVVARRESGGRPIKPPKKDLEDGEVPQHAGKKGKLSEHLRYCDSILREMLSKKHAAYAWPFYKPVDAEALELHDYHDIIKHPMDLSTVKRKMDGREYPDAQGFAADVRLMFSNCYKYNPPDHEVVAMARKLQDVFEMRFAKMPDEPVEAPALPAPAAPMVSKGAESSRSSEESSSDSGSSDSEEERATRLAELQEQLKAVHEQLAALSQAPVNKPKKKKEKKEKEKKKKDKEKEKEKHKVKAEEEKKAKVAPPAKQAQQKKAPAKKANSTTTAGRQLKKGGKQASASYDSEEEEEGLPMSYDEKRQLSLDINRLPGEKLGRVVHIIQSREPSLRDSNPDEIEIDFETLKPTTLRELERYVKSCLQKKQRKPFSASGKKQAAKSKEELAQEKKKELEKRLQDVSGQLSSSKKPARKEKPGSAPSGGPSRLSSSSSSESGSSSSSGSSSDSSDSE

[29] = target: Histone acetyltransferase KAT2A (Homo sapiens) (UniProt Q92830); conditions: Compound concentration 10.0 uM, Protein concentration 2.0 uM
[30] = target: Transcription initiation factor TFIID subunit 1-like (Homo sapiens) (UniProt Q8IZX4); conditions: Compound concentration 10.0 uM, Protein concentration 2.0 uM; remark: listed apart in the source
[31] = target: ATPase family AAA domain-containing protein 2 (Homo sapiens) (UniProt Q6PL18); conditions: Compound concentration 10.0 uM, Protein concentration 2.0 uM
[32] = target: Bromodomain adjacent to zinc finger domain protein 1A (Homo sapiens) (UniProt Q9NRL2); conditions: Compound concentration 10.0 uM, Protein concentration 2.0 uM
[33] = target: Bromodomain-containing protein 2 (Homo sapiens) (UniProt P25440); conditions: Compound concentration 10.0 uM, Protein concentration 2.0 uM; remark: listed apart in the source
[34] = target: Histone-lysine N-methyltransferase ASH1L (Homo sapiens) (UniProt Q9NR48); conditions: Compound concentration 10.0 uM, Protein concentration 2.0 uM
[35] = target: Histone acetyltransferase p300 (Homo sapiens) (UniProt Q09472); conditions: Compound concentration 10.0 uM, Protein concentration 2.0 uM
[36] = target: Bromodomain-containing protein 3 (Homo sapiens) (UniProt Q15059); conditions: Compound concentration 10.0 uM, Protein concentration 2.0 uM
[37] = target: Protein polybromo-1 (Homo sapiens) (UniProt Q86U86); conditions: Compound concentration 10.0 uM, Protein concentration 2.0 uM; remark: listed apart in the source
Peregrin (Homo sapiens) = Peregrin (Homo sapiens) (UniProt P55201); conditions: Compound concentration 10.0 uM, Protein concentration 2.0 uM
[38] = target: Protein polybromo-1 (Homo sapiens) (UniProt Q86U86); conditions: Compound concentration 10.0 uM, Protein concentration 2.0 uM; remark: listed apart in the source
[39] = target: Bromodomain and PHD finger-containing protein 3 (Homo sapiens) (UniProt Q9ULD4); conditions: Compound concentration 10.0 uM, Protein concentration 2.0 uM
[40] = target: Protein polybromo-1 (Homo sapiens) (UniProt Q86U86); assay: Thermal Shift Assay. Domain start/stop: R487-D598; conditions: Compound concentration 10.0 uM, Protein concentration 2.0 uM
[41] = target: Bromodomain and WD repeat-containing protein 1 (Homo sapiens) (UniProt Q9NSI6); conditions: Compound concentration 10.0 uM, Protein concentration 2.0 uM
[42] = target: Bromodomain-containing protein 9 (Homo sapiens) (UniProt Q9H8M2); conditions: Compound concentration 10.0 uM, Protein concentration 2.0 uM
[43] = target: SWI/SNF-related matrix-associated actin-dependent regulator of chromatin subfamily A member 4 (Homo sapiens) (UniProt P51532); conditions: Compound concentration 10.0 uM, Protein concentration 2.0 uM
CREB-binding protein [44] = target: T2, CREB-binding protein; conditions: Compound concentration 10.0 uM, Protein concentration 2.0 uM
Target sequence in this assay (Q92793 2-2442 limits assumed): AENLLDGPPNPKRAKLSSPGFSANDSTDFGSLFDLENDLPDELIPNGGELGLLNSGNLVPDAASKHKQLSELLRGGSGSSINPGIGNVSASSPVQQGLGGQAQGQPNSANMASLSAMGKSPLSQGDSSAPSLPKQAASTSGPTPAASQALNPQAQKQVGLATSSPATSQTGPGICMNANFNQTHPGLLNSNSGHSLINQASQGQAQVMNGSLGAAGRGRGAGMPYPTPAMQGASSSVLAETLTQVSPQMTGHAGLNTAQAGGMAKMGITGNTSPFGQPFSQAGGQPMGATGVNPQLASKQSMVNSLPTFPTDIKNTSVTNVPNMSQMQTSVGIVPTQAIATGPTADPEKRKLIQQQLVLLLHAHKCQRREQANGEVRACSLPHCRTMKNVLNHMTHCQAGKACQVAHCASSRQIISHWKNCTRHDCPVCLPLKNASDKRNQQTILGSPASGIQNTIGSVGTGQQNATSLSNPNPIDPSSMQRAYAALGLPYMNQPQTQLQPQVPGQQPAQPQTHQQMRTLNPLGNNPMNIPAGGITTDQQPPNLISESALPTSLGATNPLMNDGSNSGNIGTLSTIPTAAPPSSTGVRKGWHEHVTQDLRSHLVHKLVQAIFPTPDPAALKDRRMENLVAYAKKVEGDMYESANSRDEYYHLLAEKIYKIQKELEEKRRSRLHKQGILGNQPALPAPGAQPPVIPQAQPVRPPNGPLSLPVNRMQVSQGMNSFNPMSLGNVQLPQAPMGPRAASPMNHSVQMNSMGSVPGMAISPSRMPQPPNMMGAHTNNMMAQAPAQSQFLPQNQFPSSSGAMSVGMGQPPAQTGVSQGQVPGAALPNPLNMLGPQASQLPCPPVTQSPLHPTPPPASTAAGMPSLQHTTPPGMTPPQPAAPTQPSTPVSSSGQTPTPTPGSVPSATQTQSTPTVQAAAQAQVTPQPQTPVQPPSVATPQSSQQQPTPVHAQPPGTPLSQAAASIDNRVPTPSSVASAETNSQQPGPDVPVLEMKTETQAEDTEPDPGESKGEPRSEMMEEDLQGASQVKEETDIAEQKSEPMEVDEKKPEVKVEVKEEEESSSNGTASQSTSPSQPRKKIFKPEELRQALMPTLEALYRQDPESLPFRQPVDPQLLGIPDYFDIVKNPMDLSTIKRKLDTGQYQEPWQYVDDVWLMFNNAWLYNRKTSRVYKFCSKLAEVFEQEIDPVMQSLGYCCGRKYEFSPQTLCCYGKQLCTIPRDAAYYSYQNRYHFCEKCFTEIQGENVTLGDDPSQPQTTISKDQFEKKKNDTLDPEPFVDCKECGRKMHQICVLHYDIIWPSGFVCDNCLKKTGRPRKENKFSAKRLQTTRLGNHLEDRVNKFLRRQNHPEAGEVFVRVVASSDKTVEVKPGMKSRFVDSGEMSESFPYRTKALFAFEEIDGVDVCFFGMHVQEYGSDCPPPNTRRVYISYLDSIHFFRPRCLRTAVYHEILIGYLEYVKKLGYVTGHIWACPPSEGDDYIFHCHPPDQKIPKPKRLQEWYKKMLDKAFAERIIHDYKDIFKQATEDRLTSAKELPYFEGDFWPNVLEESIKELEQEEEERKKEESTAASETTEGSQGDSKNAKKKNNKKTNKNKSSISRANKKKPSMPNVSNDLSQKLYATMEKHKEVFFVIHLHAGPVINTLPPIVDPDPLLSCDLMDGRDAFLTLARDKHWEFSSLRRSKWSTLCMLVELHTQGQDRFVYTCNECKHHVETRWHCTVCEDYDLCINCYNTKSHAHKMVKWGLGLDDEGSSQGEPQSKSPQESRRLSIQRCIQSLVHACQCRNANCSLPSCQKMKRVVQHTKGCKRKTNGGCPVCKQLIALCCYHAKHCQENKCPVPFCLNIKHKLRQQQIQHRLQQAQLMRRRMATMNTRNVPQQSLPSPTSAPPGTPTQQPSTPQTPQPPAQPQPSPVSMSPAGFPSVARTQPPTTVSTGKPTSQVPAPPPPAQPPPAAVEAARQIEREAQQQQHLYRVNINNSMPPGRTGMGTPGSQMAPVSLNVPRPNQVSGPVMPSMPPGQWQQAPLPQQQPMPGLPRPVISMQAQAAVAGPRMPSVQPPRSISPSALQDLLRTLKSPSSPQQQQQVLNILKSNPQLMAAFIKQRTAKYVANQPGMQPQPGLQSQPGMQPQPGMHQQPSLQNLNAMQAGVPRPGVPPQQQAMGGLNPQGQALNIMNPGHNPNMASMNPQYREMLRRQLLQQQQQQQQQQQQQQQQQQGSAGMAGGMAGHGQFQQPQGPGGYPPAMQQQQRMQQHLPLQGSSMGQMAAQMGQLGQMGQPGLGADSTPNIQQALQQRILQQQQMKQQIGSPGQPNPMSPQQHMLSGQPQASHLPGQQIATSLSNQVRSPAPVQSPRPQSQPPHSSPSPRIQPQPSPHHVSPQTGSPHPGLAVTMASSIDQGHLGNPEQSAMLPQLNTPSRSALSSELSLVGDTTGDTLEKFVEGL

[45] = target: Bromodomain adjacent to zinc finger domain protein 2B (Homo sapiens) (UniProt Q9UIF8); conditions: Compound concentration 10.0 uM, Protein concentration 2.0 uM

What does the source list for CCC(=O)N1CCOc2c(cc(-c3ccc(OC)c(OC)c3)cc2OC[C@H]2CCCN(C)C2)C1?
ΔTm [1]: 0.3 °C; ΔTm [2]: 0.37 °C; ΔTm [3]: 0.16 °C; inhibition [4]: 11.6% and 13.1%; ΔTm [5]: 0.16 °C; ΔTm [6]: -0.01 °C and 0.36 °C; ΔTm [7]: 0.1 °C; ΔTm [8]: 1.3 °C; ΔTm [9]: 0.75 °C; ΔTm [10]: 0.19 °C; ΔTm [11]: 0.59 °C; ΔTm [12]: 0.73 °C; ΔTm [13]: 1.86 °C; ΔTm [14]: 0.53 °C; ΔTm [15]: 0.3 °C; ΔTm [16]: 1.87 °C; ΔTm [17]: 0.18 °C; ΔTm [18]: 0.77 °C and 0.68 °C; ΔTm [19]: 1.07 °C; ΔTm [20]: 1.23 °C; ΔTm [21]: 0.4 °C and 0.01 °C; IC50 [22]: 2460 nM; ΔTm [23]: 0.65 °C; ΔTm [24]: 0.84 °C; ΔTm [25]: 0.86 °C; IC50 (CREB-binding protein [26]): 324 nM; ΔTm [27]: 0.77 °C; ΔTm [28]: 1.35 °C and 2.27 °C; ΔTm [29]: 0.84 °C; ΔTm [30]: 0.65 °C; ΔTm [31]: 0.94 °C; ΔTm [32]: 1.83 °C; ΔTm [33]: 2.1 °C and 1.08 °C; ΔTm [34]: 0.59 °C; ΔTm [35]: 8.99 °C; ΔTm [36]: 1.01 °C and 1.27 °C; ΔTm [37]: 0.34 °C; ΔTm (Peregrin (Homo sapiens)): 0.86 °C; ΔTm [38]: -0.05 °C; ΔTm [39]: 0.92 °C; ΔTm [40]: 1.11 °C; ΔTm [41]: 0.28 °C; ΔTm [42]: 0.93 °C; ΔTm [43]: 0.56 °C; ΔTm (CREB-binding protein [44]): 6.8 °C and 8.01 °C and 8.5 °C; ΔTm [45]: 0.11 °C and 0.34 °C
